Source: patent publication US9828360B2 (Array BioPharma Inc., priority 2012, dated 2017)

Key:
Assay in all cases: KinaseProfiler off-target kinase profiling
Format in all cases: biochemical
Conditions in all cases: 10 μM, ATP near Km
[1] = molecular target: T1, Ros (Homo sapiens, UniProt P08922)
T1 construct: purchased Millipore, Inc. (KinaseProfiler service)
Protocol: (§1) A representative compound of the invention (Example 48) was tested for off-target kinase activity at a concentration of 10 μM by Millipore, Inc. in their KinaseProfiler™ service against all the kinases available in their full kinase panel. The compound was run in duplicate at a concentration of ATP near the Km for each individual kinase according to Millipore's specifications. The results are shown in Table B. Data are reported as percent of control (POC) and are the average of the two replicates.

[2] = molecular target: T2, SGK2 (Homo sapiens, UniProt Q9HBY8)
T2 construct: purchased Millipore, Inc. (KinaseProfiler service)
Protocol: as §1

[3] = molecular target: T3, HIPK3 (Homo sapiens, UniProt Q9H422)
T3 construct: purchased Millipore, Inc. (KinaseProfiler service)
Protocol: as §1

[4] = molecular target: T4, IRAK4 (Homo sapiens, UniProt Q9NWZ3)
T4 construct: purchased Millipore, Inc. (KinaseProfiler service)
Protocol: as §1

[5] = molecular target: T5, IKKalpha (Homo sapiens, UniProt O15111)
T5 construct: purchased Millipore, Inc. (KinaseProfiler service)
Protocol: as §1

[6] = molecular target: T6, VRK2 (Homo sapiens, UniProt Q86Y07)
T6 construct: purchased Millipore, Inc. (KinaseProfiler service)
Protocol: as §1

[7] = molecular target: T7, SGK1 (Homo sapiens, UniProt O00141, S422D)
T7 construct: purchased Millipore, Inc. (KinaseProfiler service)
Protocol: as §1

[8] = molecular target: T8, CAMK1 (Homo sapiens, UniProt Q14012)
T8 construct: purchased Millipore, Inc. (KinaseProfiler service)
Protocol: as §1

[9] = molecular target: T9, PAK2 (Homo sapiens, UniProt Q13177)
T9 construct: purchased Millipore, Inc. (KinaseProfiler service)
Protocol: as §1

[10] = molecular target: T10, p70S6K (Homo sapiens, UniProt P23443)
T10 construct: purchased Millipore, Inc. (KinaseProfiler service)
Protocol: as §1

[11] = molecular target: T11, SRPK1 (Homo sapiens, UniProt Q96SB4)
T11 construct: purchased Millipore, Inc. (KinaseProfiler service)
Protocol: as §1

[12] = molecular target: T12, HIPK1 (Homo sapiens, UniProt Q86Z02)
T12 construct: purchased Millipore, Inc. (KinaseProfiler service)
Protocol: as §1

[13] = molecular target: T13, ULK2 (Homo sapiens, UniProt Q8IYT8)
T13 construct: purchased Millipore, Inc. (KinaseProfiler service)
Protocol: as §1

[14] = molecular target: T14, p38gamma (Homo sapiens, UniProt P53778)
T14 construct: purchased Millipore, Inc. (KinaseProfiler service)
Protocol: as §1

[15] = molecular target: T15, Abl2 (Homo sapiens, UniProt P42684)
T15 construct: purchased Millipore, Inc. (KinaseProfiler service)
Protocol: as §1

[16] = molecular target: T16, Plk2 (Homo sapiens, UniProt Q9NYY3)
T16 construct: purchased Millipore, Inc. (KinaseProfiler service)
Protocol: as §1

[17] = molecular target: T17, CK2alpha2 (Homo sapiens, UniProt P19784)
T17 construct: purchased Millipore, Inc. (KinaseProfiler service)
Protocol: as §1

[18] = molecular target: T18, Rsk4 (Homo sapiens, UniProt Q9UK32)
T18 construct: purchased Millipore, Inc. (KinaseProfiler service)
Protocol: as §1

[19] = molecular target: T19, mTOR (Homo sapiens, UniProt P42345)
T19 construct: purchased Millipore, Inc. (KinaseProfiler service)
Protocol: as §1

[20] = molecular target: T20, NEK7 (Homo sapiens, UniProt Q8TDX7)
T20 construct: purchased Millipore, Inc. (KinaseProfiler service)
Protocol: as §1

[21] = molecular target: T21, JAK2 (Homo sapiens, UniProt O60674)
T21 construct: purchased Millipore, Inc. (KinaseProfiler service)
Protocol: as §1

[22] = molecular target: T22, MAPKAP-K3 (Homo sapiens, UniProt Q16644)
T22 construct: purchased Millipore, Inc. (KinaseProfiler service)
Protocol: as §1

[23] = molecular target: T23, CAMK2g (Homo sapiens, UniProt Q13555)
T23 construct: purchased Millipore, Inc. (KinaseProfiler service)
Protocol: as §1

[24] = molecular target: T24, JNK2alpha2 (Homo sapiens, UniProt P45984)
T24 construct: purchased Millipore, Inc. (KinaseProfiler service)
Protocol: as §1

[25] = molecular target: T25, PKCepsilon (Homo sapiens, UniProt Q02156)
T25 construct: purchased Millipore, Inc. (KinaseProfiler service)
Protocol: as §1

[26] = molecular target: T26, AKT1 (Homo sapiens, UniProt P31749)
T26 construct: purchased Millipore, Inc. (KinaseProfiler service)
Protocol: as §1

[27] = molecular target: T27, PASK (Homo sapiens, UniProt Q96RG2)
T27 construct: purchased Millipore, Inc. (KinaseProfiler service)
Protocol: as §1

[28] = molecular target: T28, ROCK-II (Homo sapiens, UniProt O75116)
T28 construct: purchased Millipore, Inc. (KinaseProfiler service)
Protocol: as §1

[29] = molecular target: T29, MYLK (Homo sapiens, UniProt Q15746)
T29 construct: purchased Millipore, Inc. (KinaseProfiler service)
Protocol: as §1

[30] = molecular target: T30, IR (Homo sapiens, UniProt P06213)
T30 construct: purchased Millipore, Inc. (KinaseProfiler service)
Protocol: as §1

[31] = molecular target: T31, FGFR3 (Homo sapiens, UniProt P22607)
T31 construct: purchased Millipore, Inc. (KinaseProfiler service)
Protocol: as §1

[32] = molecular target: T32, PKCbetaI (Homo sapiens, UniProt P05771)
T32 construct: purchased Millipore, Inc. (KinaseProfiler service)
Protocol: as §1

[33] = molecular target: T33, ERK2 (Homo sapiens, UniProt P28482)
T33 construct: purchased Millipore, Inc. (KinaseProfiler service)
Protocol: as §1

[34] = molecular target: T34, Abl-P (Homo sapiens, UniProt P00519)
T34 construct: purchased Millipore, Inc. (KinaseProfiler service)
Protocol: as §1

[35] = molecular target: T35, PAK5 (Homo sapiens, UniProt Q9P286)
T35 construct: purchased Millipore, Inc. (KinaseProfiler service)
Protocol: as §1

[36] = molecular target: T36, Met (Homo sapiens, UniProt P08581)
T36 construct: purchased Millipore, Inc. (KinaseProfiler service)
Protocol: as §1

[37] = molecular target: T37, ERK1 (Homo sapiens, UniProt P27361)
T37 construct: purchased Millipore, Inc. (KinaseProfiler service)
Protocol: as §1

[38] = molecular target: T38, eEF-2K (Homo sapiens, UniProt O00418)
T38 construct: purchased Millipore, Inc. (KinaseProfiler service)
Protocol: as §1

[39] = molecular target: T39, PhKgamma2 (Homo sapiens, UniProt P15735)
T39 construct: purchased Millipore, Inc. (KinaseProfiler service)
Protocol: as §1

[40] = molecular target: T40, SRC (Homo sapiens, UniProt P12931)
T40 construct: purchased Millipore, Inc. (KinaseProfiler service)
Protocol: as §1

[41] = molecular target: T41, MRCKbeta (Homo sapiens, UniProt Q9Y5S2)
T41 construct: purchased Millipore, Inc. (KinaseProfiler service)
Protocol: as §1

T9 sequence (Q13177 whole entry): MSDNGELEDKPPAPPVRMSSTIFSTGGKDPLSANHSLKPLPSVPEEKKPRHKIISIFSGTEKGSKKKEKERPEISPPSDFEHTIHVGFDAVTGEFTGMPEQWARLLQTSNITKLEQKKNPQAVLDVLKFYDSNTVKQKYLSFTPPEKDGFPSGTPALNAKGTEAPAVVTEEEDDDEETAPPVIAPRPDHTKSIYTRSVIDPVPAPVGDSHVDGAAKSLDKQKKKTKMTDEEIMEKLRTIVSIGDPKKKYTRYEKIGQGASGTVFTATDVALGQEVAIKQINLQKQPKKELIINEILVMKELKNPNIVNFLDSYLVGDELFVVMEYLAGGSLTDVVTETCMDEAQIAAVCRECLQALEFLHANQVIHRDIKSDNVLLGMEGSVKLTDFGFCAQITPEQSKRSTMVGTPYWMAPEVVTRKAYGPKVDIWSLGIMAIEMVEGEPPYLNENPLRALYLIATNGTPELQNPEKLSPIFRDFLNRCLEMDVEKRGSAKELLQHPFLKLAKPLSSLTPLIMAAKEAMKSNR
T35 sequence (Q9P286 whole entry): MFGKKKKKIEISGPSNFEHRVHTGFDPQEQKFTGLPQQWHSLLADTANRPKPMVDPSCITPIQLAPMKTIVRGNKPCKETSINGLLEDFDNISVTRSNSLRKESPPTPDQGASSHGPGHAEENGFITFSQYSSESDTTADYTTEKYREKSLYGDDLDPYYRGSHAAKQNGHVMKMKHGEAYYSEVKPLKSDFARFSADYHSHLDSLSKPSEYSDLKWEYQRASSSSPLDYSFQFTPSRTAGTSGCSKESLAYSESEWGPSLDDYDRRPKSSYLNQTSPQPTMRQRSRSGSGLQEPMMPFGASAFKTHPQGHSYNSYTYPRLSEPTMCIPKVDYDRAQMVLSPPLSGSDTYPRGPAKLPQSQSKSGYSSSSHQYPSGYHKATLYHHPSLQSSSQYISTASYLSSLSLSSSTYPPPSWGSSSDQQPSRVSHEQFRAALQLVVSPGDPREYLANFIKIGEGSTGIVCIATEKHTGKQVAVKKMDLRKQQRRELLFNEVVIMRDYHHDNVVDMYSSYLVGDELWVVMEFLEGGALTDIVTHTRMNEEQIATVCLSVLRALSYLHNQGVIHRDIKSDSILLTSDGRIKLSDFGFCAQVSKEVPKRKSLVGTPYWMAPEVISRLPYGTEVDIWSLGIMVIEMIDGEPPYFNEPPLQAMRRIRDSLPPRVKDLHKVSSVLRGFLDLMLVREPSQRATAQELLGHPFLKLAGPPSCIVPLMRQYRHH
T28 sequence (O75116 whole entry): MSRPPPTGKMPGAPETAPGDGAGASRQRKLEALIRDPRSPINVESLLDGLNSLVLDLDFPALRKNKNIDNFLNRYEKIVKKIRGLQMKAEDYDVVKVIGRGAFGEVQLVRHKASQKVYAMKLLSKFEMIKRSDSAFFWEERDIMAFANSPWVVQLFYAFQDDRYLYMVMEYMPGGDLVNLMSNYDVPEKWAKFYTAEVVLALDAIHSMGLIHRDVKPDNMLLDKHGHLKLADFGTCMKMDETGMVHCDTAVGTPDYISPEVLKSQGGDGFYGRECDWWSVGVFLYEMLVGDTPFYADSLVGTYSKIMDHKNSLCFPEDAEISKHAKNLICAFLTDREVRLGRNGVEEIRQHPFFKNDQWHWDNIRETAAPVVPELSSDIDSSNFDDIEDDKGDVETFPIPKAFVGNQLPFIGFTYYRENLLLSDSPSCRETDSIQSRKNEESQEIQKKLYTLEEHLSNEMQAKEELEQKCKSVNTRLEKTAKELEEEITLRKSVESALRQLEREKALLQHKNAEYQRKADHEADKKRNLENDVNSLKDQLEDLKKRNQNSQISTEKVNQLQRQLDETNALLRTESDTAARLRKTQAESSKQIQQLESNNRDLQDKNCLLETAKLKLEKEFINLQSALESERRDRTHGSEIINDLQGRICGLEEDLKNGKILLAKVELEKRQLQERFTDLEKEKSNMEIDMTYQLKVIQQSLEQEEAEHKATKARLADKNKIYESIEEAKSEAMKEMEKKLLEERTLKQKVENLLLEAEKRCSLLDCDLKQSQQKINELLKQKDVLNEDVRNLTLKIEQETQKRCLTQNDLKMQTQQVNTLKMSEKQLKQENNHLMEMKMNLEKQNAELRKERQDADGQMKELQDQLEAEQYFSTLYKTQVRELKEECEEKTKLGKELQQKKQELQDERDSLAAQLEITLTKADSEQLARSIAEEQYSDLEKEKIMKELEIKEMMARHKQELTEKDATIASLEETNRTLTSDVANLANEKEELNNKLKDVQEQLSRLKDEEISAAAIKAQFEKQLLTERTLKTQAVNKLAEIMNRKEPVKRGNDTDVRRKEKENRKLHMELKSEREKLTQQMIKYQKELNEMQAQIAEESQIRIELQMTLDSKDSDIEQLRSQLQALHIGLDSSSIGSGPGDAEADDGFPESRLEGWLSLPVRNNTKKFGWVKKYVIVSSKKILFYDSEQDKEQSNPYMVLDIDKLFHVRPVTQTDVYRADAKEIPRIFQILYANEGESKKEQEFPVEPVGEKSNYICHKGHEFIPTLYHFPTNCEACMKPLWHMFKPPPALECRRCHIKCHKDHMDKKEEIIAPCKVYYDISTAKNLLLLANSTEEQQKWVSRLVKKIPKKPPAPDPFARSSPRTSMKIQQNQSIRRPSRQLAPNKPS
T23 sequence (Q13555 whole entry): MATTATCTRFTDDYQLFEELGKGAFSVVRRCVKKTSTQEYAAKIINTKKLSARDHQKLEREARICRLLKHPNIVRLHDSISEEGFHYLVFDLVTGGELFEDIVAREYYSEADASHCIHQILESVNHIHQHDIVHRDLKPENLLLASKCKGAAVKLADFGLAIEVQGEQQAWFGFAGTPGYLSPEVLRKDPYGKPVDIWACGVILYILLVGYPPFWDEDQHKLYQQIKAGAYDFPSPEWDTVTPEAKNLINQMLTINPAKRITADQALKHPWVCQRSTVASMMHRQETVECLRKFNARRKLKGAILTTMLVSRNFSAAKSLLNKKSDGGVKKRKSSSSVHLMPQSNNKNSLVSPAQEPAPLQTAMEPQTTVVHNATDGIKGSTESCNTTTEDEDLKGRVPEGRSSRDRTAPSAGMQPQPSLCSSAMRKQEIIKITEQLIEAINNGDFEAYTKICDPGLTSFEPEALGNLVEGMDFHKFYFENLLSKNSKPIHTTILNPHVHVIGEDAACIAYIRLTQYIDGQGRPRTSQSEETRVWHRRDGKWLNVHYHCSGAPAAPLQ
T27 sequence (Q96RG2 whole entry): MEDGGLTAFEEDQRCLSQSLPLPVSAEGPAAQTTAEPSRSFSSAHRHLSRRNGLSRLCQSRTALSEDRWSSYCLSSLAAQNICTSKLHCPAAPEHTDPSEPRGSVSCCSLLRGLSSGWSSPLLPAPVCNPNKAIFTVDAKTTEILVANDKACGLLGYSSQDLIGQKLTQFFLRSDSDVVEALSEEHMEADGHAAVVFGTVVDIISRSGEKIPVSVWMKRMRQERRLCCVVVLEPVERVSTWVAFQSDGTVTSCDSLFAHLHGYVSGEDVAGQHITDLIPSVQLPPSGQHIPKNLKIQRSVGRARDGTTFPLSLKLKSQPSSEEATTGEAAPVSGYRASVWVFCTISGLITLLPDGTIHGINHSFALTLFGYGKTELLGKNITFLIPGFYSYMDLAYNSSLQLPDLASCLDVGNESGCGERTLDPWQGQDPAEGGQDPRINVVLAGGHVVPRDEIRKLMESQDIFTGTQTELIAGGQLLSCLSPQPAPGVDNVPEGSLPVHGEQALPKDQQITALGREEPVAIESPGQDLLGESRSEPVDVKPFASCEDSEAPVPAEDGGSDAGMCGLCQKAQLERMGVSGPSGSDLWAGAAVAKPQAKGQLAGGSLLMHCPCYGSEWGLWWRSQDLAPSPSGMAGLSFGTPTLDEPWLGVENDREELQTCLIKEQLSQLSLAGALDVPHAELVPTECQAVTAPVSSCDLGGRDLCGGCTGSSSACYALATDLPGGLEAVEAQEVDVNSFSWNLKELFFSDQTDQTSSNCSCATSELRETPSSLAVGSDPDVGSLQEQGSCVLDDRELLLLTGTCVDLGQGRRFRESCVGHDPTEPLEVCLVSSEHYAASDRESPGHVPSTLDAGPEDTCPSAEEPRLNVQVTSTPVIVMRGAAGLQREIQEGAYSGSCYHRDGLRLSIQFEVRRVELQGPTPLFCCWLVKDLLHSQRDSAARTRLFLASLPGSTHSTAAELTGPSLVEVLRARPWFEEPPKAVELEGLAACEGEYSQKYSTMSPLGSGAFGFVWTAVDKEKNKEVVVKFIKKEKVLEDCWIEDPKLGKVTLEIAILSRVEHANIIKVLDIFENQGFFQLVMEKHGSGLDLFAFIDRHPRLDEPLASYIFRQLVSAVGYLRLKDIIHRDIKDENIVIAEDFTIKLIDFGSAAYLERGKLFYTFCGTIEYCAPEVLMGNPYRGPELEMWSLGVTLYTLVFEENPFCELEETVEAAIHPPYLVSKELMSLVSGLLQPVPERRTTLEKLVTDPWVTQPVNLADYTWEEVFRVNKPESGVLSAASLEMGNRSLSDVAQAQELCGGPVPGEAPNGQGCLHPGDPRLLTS
T24 sequence (P45984 whole entry): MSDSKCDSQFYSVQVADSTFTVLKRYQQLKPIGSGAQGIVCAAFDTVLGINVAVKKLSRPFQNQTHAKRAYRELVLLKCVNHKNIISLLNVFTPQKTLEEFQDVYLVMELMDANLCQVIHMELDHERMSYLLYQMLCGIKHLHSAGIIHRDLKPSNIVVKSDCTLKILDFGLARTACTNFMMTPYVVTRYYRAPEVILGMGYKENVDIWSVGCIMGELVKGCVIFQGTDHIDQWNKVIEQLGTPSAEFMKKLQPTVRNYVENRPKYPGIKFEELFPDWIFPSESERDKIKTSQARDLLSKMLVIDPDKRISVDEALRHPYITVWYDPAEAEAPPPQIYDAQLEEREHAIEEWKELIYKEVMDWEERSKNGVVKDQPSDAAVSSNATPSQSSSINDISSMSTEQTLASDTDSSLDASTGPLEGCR

COCCN1C[C@@H](NC(=O)Nc2sc(C(C)C)nc2-c2ccccc2)[C@H](c2ccccc2)C1 [Example 48, 1-(2-isopropyl-4-phenylthiazol-5-yl)-3-((3S,4R)-1-(2-methoxyethyl)-4-phenylpyrrolidin-3-yl)urea]
Avg POC [1]: 111% of control
Avg POC [2]: 121.5% of control
Avg POC [3]: 82% of control
Avg POC [4]: 88% of control
Avg POC [5]: 112% of control
Avg POC [6]: 98% of control
Avg POC [7]: 125% of control
Avg POC [8]: 104.5% of control
Avg POC [9]: 101.5% of control
Avg POC [10]: 107.5% of control
Avg POC [11]: 115.5% of control
Avg POC [12]: 119.5% of control
Avg POC [13]: 98.5% of control
Avg POC [14]: 120.5% of control
Avg POC [15]: 124.5% of control
Avg POC [16]: 99.5% of control
Avg POC [17]: 113% of control
Avg POC [18]: 116% of control
Avg POC [19]: 99% of control
Avg POC [20]: 107% of control
Avg POC [21]: 123.5% of control
Avg POC [22]: 75.5% of control
Avg POC [23]: 116% of control
Avg POC [24]: 93.5% of control
Avg POC [25]: 103.5% of control
Avg POC [26]: 117% of control
Avg POC [27]: 103% of control
Avg POC [28]: 104.5% of control
Avg POC [29]: 107% of control
Avg POC [30]: 102% of control
Avg POC [31]: 103.5% of control
Avg POC [32]: 97% of control
Avg POC [33]: 101% of control
Avg POC [34]: 147.5% of control
Avg POC [35]: 113% of control
Avg POC [36]: 109% of control
Avg POC [37]: 100% of control
Avg POC [38]: 116.5% of control
Avg POC [39]: 110% of control
Avg POC [40]: 124% of control
Avg POC [41]: 140.5% of control
